According to patent EP1276895B1, “METHOD FOR THE IDENTIFICATION OF ACTIVE SITE PROTEASE INACTIVATORS” (THE UNIVERSITY OF GEORGIA RESEARCH FOUNDATION, INC., priority 2000, dated 2001):
Starred links: 1 amine or outer side, 2 acyl side, 3 side chain; linkers in the order of their positions; H or OH if unused. Residues, ends and D or L forms follow the SMILES beside them. *: point of attachment. AFC = O=c1cc(C(F)(F)F)c2ccc(N*)cc2o1; Suc = O=C(CCC(=O)[*:2])[*:1]; Cbz = O=C(OCc1ccccc1)*; Boc = CC(C)(C)OC(=O)*

Assays:
[1] = tested on: purified Taenia solium cysteine protease; test: Substrate cleavage screen of AFC-linked synthetic substrates (Step II), purified protease; assay type: biochemical; conditions: 1 ug purified protease, 1 ug substrate, Citrate pH 4.9 with 0.01 M cysteine, 18 h, 37 °C
Protocol: In this step, the most efficacious substrate for detection of the cysteine protease (high Kcat substrate) was determined in vitro along with those substrates which were not well cleaved (low kcat substrates). From this point forth, the following conditions refer to all assays: "assay buffer" refers to 0.4 M Citrate, pH 4.9 (the pH optima of the protease). Incubation time was 18 hours at 37°C. These conditions were determined by our preliminary data to be best for kinetic evaluation of the protease. […] The experiments were conducted in […] Borosilicate mini-culture tubes (Fisher Scientific), and a fluorometer (Turner) was employed for detection of AFC cleavage.
Approximately 1 ug (or a proteolytically detectable amount) of the purified target cysteine protease was incubated individually, with 1 ug of each of the available substrates in 500 uL of assay buffer. During this setup, the substrate was pre-incubated in the assay buffer for a short period of time (20 minutes) in order to reach an equilibrated status before the addition of the protease. Cleavage assessments were based upon the property of the protease to cleave synthetic peptide substrates linked at the C-terminus to 7-Amino-4-Trifluoromethyl Coumarin (AFC) as previously described. AFC linked tripeptides, dipeptides, and monopeptides, (with a variety of permutations at P3-P1) were available from Enzyme Systems Products (Livermore, CA), and were used as the source of the subset. Following incubation of enzyme preparations overnight (18 h, 37 °C) with peptide in assay buffer (Citrate, pH 4.9, supplemented with 0.01 M cysteine), free AFC concentrations were measured fluorometrically (excitation 405 nm, emission 505 nm). The proteolytic cleavage released the AFC group, which was measurable as a free molecule by a standard fluorometer and converted into molar quantities, based upon a previously established standard curve. The simplicity of AFC detection by the fluorometer was a key factor which quickened and simplified the procedures.
In the assay, 1 ug of the purified Taenia cysteine protease was added to a saturating amount of Z-Phe-Arg-AFC (4X10^-5 M) in assay buffer. The experiment was conducted in triplicate and repeated at least 5 times until we were certain that variability in AFC cleavage was not statistically significant.
(§1) Vmax was calculated for the cleavage of substrates by the purified target protease and Vmax was calculated for substrates cleaved by the crude mix protease using conventional kinetic modeling calculations already described in the art.

[2] = tested on: purified Taenia solium cysteine protease; test: Competitor assay of low Vmax substrates (vehicles) against high Vmax substrate cocktails (Step III), purified protease; assay type: biochemical; conditions: purified protease; for V Value: V = P * M, P = inhibition with first (1.4%) cocktail, M = inhibition with last (7.4%) cocktail, vehicle 8X10^-6M, each cocktail substrate 1X10^-6 M
Protocol: (We employed "Vmax" here although Kcat could also be used). Due to the lower number of substrates, a percentage was not chosen for the "BOTTOM %" " substrates. Alternately, all substrates which were not cleaved as determined by a value of 10 uM/hr or less, were chosen to be tested in this step for competitive ability. From this point forth, the term "vehicle" will represent low Vmax substrates that were capable of inhibiting cleavage of the percent cocktails. In this instance, we tested for "vehicles" which inhibited cleavage of the TOP 1.4% cocktail (they were delivered into the active site). Based upon our results from Step II, the top 1.4% cocktail was composed of Z-Phe-Arg-AFC, the highest cleaved substrate.
(§2) The experiment began with a competitor test between the noncleaved low Vmax substrates and the highest Vmax substrate, Z-Phe-Arg-AFC. Concentrations were varied between the low Vmax substrate and Z-Phe-Arg-AFC, as described above under "refinement of assay" until a relative inhibition profile was obtained.
The mixture was allowed to equilibrate for a period of 30 minutes. Finally, active purified enzyme was added to the tubes at a concentration which was always 50 times less than the concentration of the high and low Vmax substrates, in order to insure saturation conditions. This concentration varied from purification to purification and the amount added depended upon the yield and specific activity of the purified protease.
Positive controls were set up similarly as described for test controls, except that solvent was added in substitution for the low Vmax substrate (in a volume equal to the low Vmax volume addition). All of the substrates could be dissolved in dimethylsulfoxide (DMSO), and therefore, this was the solvent of choice. Negative controls were set up by adding the low Vmax and the high Vmax substrate in a tube without the protease. All potential non-proteolytic induced liberation of AFC was therefore controlled for in this tube (a feature which also insured stability of the AFC substrates, since these substrates will freely liberate AFC when unstable). A tube set will be established for this negative control.
All controls were set up in triplicate, and experiments repeated a minimum of five times. The assays were incubated at 37°C, for 18 hours overnight.
(§3) Percent inhibition was calculated as: %Inhibition =; ((AFC positive for"Y"-AFC negative for"Y")-(AFC test-AFC negative for"Y")X100)/(AFC positive for "Y"-AFC negative for "Y") [formula]
A 2.9% cocktail of the high Vmax substrates was made. This was composed of Z-FR-AFC and the second most cleaved substrate, Z-FAR-AFC. The vehicles promoted from the initial screenings above were again tested for competitive inhibition ability with the new cocktails. Their concentrations were set identically to those which were "fixed" in the previous protocols. In other words, 8X10^-6M of the vehicle was added to the culture tube with 1X10^-6 M of Z-FR-AFC and 1X10^-6 M of Z-FAR-AFC. Active protease was added last at a concentration that was 50 times less than the concentration of the high Vmax substrate (to ensure saturating conditions).
In similar experimental fashion, a 4.4%, 5.9%, and 7.4% cocktail were tested with each of the promising vehicles. Each percentage point represented an increase by one substrate. Each of the individual components in the cocktail were added at 1X10^-6 M each, to 8X10^-6 M of the vehicle. The composition of the cocktails was as follows: 4.4% cocktail: Z-FR-AFC, Z-FAR-AFC, and Z-AAK-AFC (third highest cleaved substrate); 5.9% cocktail: Z-FR-AFC, Z-FAR-AFC, Z-AAK-AFC, and AP-AFC (fourth highest cleaved substrate); 7.4% cocktail: […], Z-FAR-AFC, Z-AAK-AFC, AP-AFC, and Z-VLR-AFC. We stopped at this number of substrates in the cocktail, since confidence was obtained that inhibitory potential of vehicles could be "diluted out."
Finally, a manageable set of candidate vehicles was determined. […]

Taenia solium crude mix [3] = test: Competitor assay of vehicles against high Vmax substrate cocktails (Step III), crude mix; assay type: biochemical
Protocol: Step III for a crude mix proceeds it would for a purified protease, except that Vm is used instead of kcat.
as §2, §3
One of the most intriguing findings in this experiment was that a highly similar inhibition pattern for the competitor assay was noted when the crude mix was employed as the source of the target protease. Although there were some variations in the effects of inhibitor dilution, the most highly ranked vehicles remained inhibitory consistently in comparison to the profile with the target protease. The relative profile and composition of the top tiers of vehicles was identical. Z-LLL-AFC, Z-LLY-AFC, Mu-LY-AFC, Boc-VPR-AFC, Z-SY-AFC, Z-RR-AFC, Z-FLF-AFC, Z-LGR-AFC consistently presented as the top eight vehicles (Fig. 5b), respectively, based upon their V values (Table 2). […] It was notable that the three vehicles had very similar V values. […] As was mentioned, this vehicle along with Z-LLL-AFC and Z-LLY-AFC, were consistently the most inhibitory vehicles. The V values of the most inhibitory vehicle series are shown below in Table 2. Again, a clear break between the first and second tier vehicles could be noted with the V value. Table 2. Vehicles and V value rankings.

[4] = tested on: purified Taenia solium cysteine protease; test: Competitor assay of low Vmax substrates (vehicles) against high Vmax substrate cocktails (Step III), purified protease; assay type: biochemical; conditions: robustness of inhibition
[5] = tested on: purified cysteine protease of Taenia solium; test: Human IgG degradation inhibition test, western blot (Step IV), purified enzyme; assay type: biochemical; conditions: 18 hrs, 37°C, E 64 10^-6 M, vehicle 10^-3 M
Protocol: (§4) To conduct this assessment, a western blot was performed. IgG digestion was detected by incubating 20 ul of T. solium purified enzyme or T. so/ium extract with 1 ug of human IgG (Sigma, St. Louis) in a final volume of 100 ul of assay buffer. Exogenous thiol activation was assessed by incubating the assay in the presence or absence of cysteine. The catalytic class of the IgG protease was determined by pre-incubating the following proteinase inhibitors at their active concentrations, with the enzyme: E 64 (10^-6 M, cysteine proteinases), phenylmethylsulfonyl fluoride (PMSF) (10^-3 M, serine proteinases), pepstatin A (10^-6 M, aspartic proteinases), and 1,10 phenanthroline (10^-3 M, metalloproteinases), and the vehicle, Mu-Leu-Tyr-AFC (10^-3 M). After addition of IgG, the assay was incubated overnight (37°C, 18 hrs). Subsequently, 100 ul of the mixture was boiled in sodium dodecyl sulfate polyacrylamide gel electrophoresis (SDS-PAGE) sample buffer with 2% 2-mercaptoethanol, separated by 12.5% SDS-PAGE, and blotted onto a polyvinylidene difluoride membrane. Tris buffered saline containing 0.1% bovine serum albumin and 0.05% Tween 20 (TBS-BSA) was used to block nonspecific binding. […]

crude mix = test: Human IgG degradation inhibition test, western blot (Step IV), crude mix; assay type: biochemical, Taenia solium; conditions: crude mix compared with purified proteinase; data not shown
Protocol: as §4

Taenia solium crude mix [6] = test: Substrate cleavage screen of AFC-linked synthetic substrates (Step II), crude mix; assay type: biochemical; conditions: 0.4 M Citrate pH 4.9, 18 h, 37 °C
Protocol: In order to prepare the Taenia solium "crude mix", dry frozen Taenia solium cysts were obtained from 6-12 month old cysticercotic pigs from villages in an endemic area of porcine cysticercosis in Mexico. Metacestodes were carefully dissected from the parasitized tissues, washed three times with PBS, and lyophilized. Parasite extracts were prepared by suspending 0.1 grams of dry frozen cysts in 10 ml of extraction buffer (0.4 M citrate, pH 4.9). The cysts were vortexed for three five-minute intervals with intermittent incubations (5 min) at 4 °C. Particulate material was removed by centrifugation (20,000 x g, 120 min) and the resulting soluble fraction filtered ([…]). In assay buffers, the detectable amount of the crude mix, as described above, was employed and incubated with the target substrates.
as §1
Similar steps were employed here as they are for the purified protease. As will be noted, similar conclusions were noted on the identification of the protease inhibitor on the crude mix, and the identical hypothesis was derived (Fig. 4b). It is notable that the most cleaved substrates were Z-FR-AFC, Z-FAR-AFC, Z-AAK-AFC, AP-AFC, Z-VLR-AFC, respectively. This cleavage pattern, noted along with others, was highly similar to the cleavage pattern due to the purified protease. […] Moreover, non-cleaved substrates were also highly similar, although there were subtle variations in relative cleavage for the non-cleaved substrates. However, this would be expected as fluorometric readings will tend to have subtle variation at lower readings due to background effects.

What does the source list for `CC(C)[C@H](NC(=O)OC(C)(C)C)C(=O)N1CCC[C@H]1C(=O)N[C@@H](CCCNC(=N)N)C(=O)Nc1ccc2c(C(F)(F)F)cc(=O)oc2c1` [B-VPR-AFC, Boc-Val-Pro-Arg-AFC] (Boc-Val-Pro-Arg-{AFC})?
cleavage of AFC-linked substrate (Vmax) [1]: noncleavable; inhibition with the final cocktail (7.4%) ([2]; 7.4% cocktail = Z-FR-AFC + Z-FAR-AFC + Z-AAK-AFC + AP-AFC + Z-VLR-AFC, 1X10^-6 M each, vehicle 8X10^-6 M): less than 20%; V Value [2]: 0.116; V Value ([2]; listed as B-VPR-AC): 0.120; Tier (Taenia solium crude mix [3]): 2 (The second tier was composed of those vehicles, which produced inhibition between 20-50% inhibition when in the presence of the 1.4% cocktail); V Value (Taenia solium crude mix [3]; V = P * M): 0.12; percentage drop in inhibition between the 1.4% and the 7.4% cocktail [4]: 38%

For `CC(C)CC(NC(=O)C1OC1C(=O)O)C(=O)NCCCCNC(=N)N` (stereo not shown) [E64, reference compound], which “inhibition of cleavage of human IgG” value [5] is on record?
Its value is “Inhibition was noted”.

Which “inhibition of cleavage of human IgG” value [5] does the source give for `CC(C)C[C@H](NC(=O)CCC(=O)O)C(=O)N[C@@H](Cc1ccc(O)cc1)C(=O)Nc1ccc2c(C(F)(F)F)cc(=O)oc2c1` [Suc-Leu-Tyr-AFC] (Suc-Leu-Tyr-{AFC}) here?
Its value is “inhibit”.

What about the “concentration required for inhibition of IgG cleavage” value (crude mix) of the same compound?
The value was “greater”.

With `C[C@H](NC(=O)OCc1ccccc1)C(=O)N[C@@H](C)C(=O)N[C@@H](CCCCN)C(=O)Nc1ccc2c(C(F)(F)F)cc(=O)oc2c1` [Z-AAK-AFC] (Cbz-Ala-Ala-Lys-{AFC}) as the compound, how does the “cleavage of AFC-linked substrate (Vmax)” value (Taenia solium crude mix [6]) read?
The value was “most cleaved”.

For `C[C@H](NC(=O)[C@H](Cc1ccccc1)NC(=O)OCc1ccccc1)C(=O)N[C@@H](CCCNC(=N)N)C(=O)Nc1ccc2c(C(F)(F)F)cc(=O)oc2c1` [Z-FAR-AFC] (Cbz-Phe-Ala-Arg-{AFC}), which “cleavage of AFC-linked substrate (Vmax)” value (Taenia solium crude mix [6]) is on record?
The value was “most cleaved”.

How did the “cleavage of AFC-linked substrate (Vmax)” value [1] turn out when `N=C(N)NCCC[C@H](NC(=O)[C@H](Cc1ccccc1)NC(=O)OCc1ccccc1)C(=O)Nc1ccc2c(C(F)(F)F)cc(=O)oc2c1` [Z-FR-AFC, Z-Phe-Arg-AFC, reference compound] (Cbz-Phe-Arg-{AFC}) was run?
Its value is “cleaved”.

And the “cleavage of AFC-linked substrate (Vmax)” value ([1]; listed as Z-Phe-Arg-AFC)?
Its value is “highest Vmax”.

What about the “cleavage of AFC-linked substrate (Vmax)” value (Taenia solium crude mix [6]) of the same compound?
The value was “most cleaved”.

With `CC(C)C[C@H](NC(=O)[C@@H](NC(=O)OCc1ccccc1)C(C)C)C(=O)N[C@@H](CCCNC(=N)N)C(=O)Nc1ccc2c(C(F)(F)F)cc(=O)oc2c1` [Z-VLR-AFC] (Cbz-Val-Leu-Arg-{AFC}) as the compound, how does the “cleavage of AFC-linked substrate (Vmax)” value (Taenia solium crude mix [6]) read?
The value was “most cleaved”.
